One may read the IC50 as the midpoint of a concentration-inhibition curve.

The experiment concerns the target T1, recombinant human renin (Homo sapiens, UniProt P00797).
T1 sequence (P00797 67-406): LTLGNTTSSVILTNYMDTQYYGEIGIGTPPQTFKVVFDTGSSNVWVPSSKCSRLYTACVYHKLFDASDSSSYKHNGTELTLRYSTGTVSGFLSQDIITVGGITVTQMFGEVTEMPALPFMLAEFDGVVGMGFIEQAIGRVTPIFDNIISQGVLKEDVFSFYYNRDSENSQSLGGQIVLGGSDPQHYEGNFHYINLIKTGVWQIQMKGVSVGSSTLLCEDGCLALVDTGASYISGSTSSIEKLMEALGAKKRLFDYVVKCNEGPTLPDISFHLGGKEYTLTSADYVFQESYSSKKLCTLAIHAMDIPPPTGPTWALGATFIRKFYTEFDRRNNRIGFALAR
Put plainly: Primary renin inhibition assay: IC50 in buffer, 384 well MTP (AngI quantified by EIA). The experiment is classed as biochemical. As to conditions: human tetradecapeptide substrate, 37° C. for 3 h. Here is the method:
1. Enzyme Immuno Assay (EIA) to Estimate AngI Accumulation and Renin Inhibition
1.1 Preparation of AngI-BSA Conjugate
1.3 mg (1 μmol) of AngI [1-10 (Bachem, H-1680)] and 17 mg (0.26 μmol) of BSA (Fluka, 05475) were dissolved in 4 mL of 0.1M phosphate buffer, pH 7.4, after which 2 mL of a 1:100 dilution of glutaraldehyde in H2O (Sigma G-5882) was added dropwise. The mixture was incubated overnight at 4° C., then dialyzed against 2 liters of 0.9% NaCl, twice for 4 h at rt, followed by dialysis against 2 liters of PBS 1× overnight at rt. The solution was then filtered with a Syringe filter, 0.45 μm (Nalgene, Cat. No. 194-2545). The conjugate can be stored in polypropylene tubes in 0.05% sodium azide at 4° C. for at least 12 months.
1.2 Preparation of BSA-AngI Coated MTP
Microtiter plates (MPT384, MaxiSorp™, Nunc) were incubated overnight at 4° C. with 80 μl of AngI (1-10)/BSA conjugate, diluted 1:100'000 in PBS 1× in a teflon beaker (exact dilution dependent on batch of conjugate), emptied, filled with 90 μl of blocking solution [0.5% BSA (Sigma A-2153) in PBS 1×, 0.02% NaN3], and incubated for at least 2 h at rt, or overnight at 4° C. 96 well MTP (MaxiSorp™, Nunc) were coated with 200 μl conjugate and blocked with 250 μl blocking solution as above, except that the blocking solution contained 3% BSA. The plates can be stored in blocking solution at 4° C. for 1 month.
1.3 AngI-EIA in 384 Well MTP
The AngI (1-10)/BSA coated MTP were washed 3 times with wash buffer (PBS 1×, 0.01% Tween 20) and filled with 75 μl of primary antibody solution (anti-AngI antiserum, pre-diluted 1:10 in horse serum), diluted to a final concentration of 1:100'000 in assay buffer (PBS 1×, 1 mM EDTA, 0.1% BSA, pH 7.4). 5 μl of the renin reaction (or standards in assay buffer) (see below) were added to the primary antibody solution and the plates were incubated overnight at 4° C. After the incubation the plates were washed 3 times with wash buffer and incubated with secondary antibody [anti-rabbit IgG, linked to horseradish peroxidase (Amersham Bioscience, NA 934V), diluted 1:2'000 in wash buffer] for 2 h at rt. The plates were washed 3 times with wash buffer and then incubated for 1 h at rt with substrate solution [1.89 mM ABTS (2.2′-azino-di-(3-ethyl-benzthiazolinsulfonate)] (Roche Diagnostics, 102 946) and 2.36 mM H2O2 [30%, (Fluka, 95300] in substrate buffer (0.1M sodium acetate, 0.05M sodium dihydrogen phosphate, pH 4.2). The OD of the plate was read at 405 nm in a microplate reader (FLUOStar Optima from BMG). The production of AngI during the renin reaction was quantified by comparing the OD of the sample with the OD of a standard curve of AngI(1-10), measured in parallel.
2. Primary Renin Inhibition Assay: IC50 in Buffer, 384 Well MTP
The renin assay was adapted from an assay described before (Fischli W. et al., Hypertension, 1991, 18:22-31) and consists of two steps: in the first step, recombinant human renin is incubated with its substrate (commercial human tetradecapeptide renin substrate) to create the product Angiotensin I (AngI). In the second step, the accumulated AngI is measured by an immunological assay (enzyme immuno assay, EIA). The detailed description of this assay is found below. The EIA is very sensitive and well suited for renin activity measurements in buffer or in plasma. Due to the low concentration of renin used in this assay (2 fmol per assay tube or 10 pM) it is possible to measure inhibitor affinities in this primary assay down to low pM concentration.
Recombinant human renin (3 pg/μl) in assay buffer (PBS 1×, 1 mM EDTA, 0.1% BSA, pH 7.4), human tetradecapeptide (1-14) substrate (Bachem, M-1120) [5 μM in 10 mM HCl], hydroxyquinoline sulfate (Fluka, 55100) [30 mM in H2O] and assay buffer were premixed at 4° C. at a ratio of 100:30:10:145. 47.5 μl per well of this premix was transferred into polypropylene plates (MTP384, Nunc). […]
As for `Cc1cccc(CN(C(=O)C(CN)Cc2cnc(OCCOc3c(F)ccc(F)c3Cl)s2)C2CC2)c1C` (racemic) [Example 2, (rac.)-3-Amino-2-{2-[2-(2-chloro-3,6-difluoro-phenoxy)-ethoxy]-thiazol-5-ylmethyl}-N-cyclopropyl-N-(2,3-dimethyl-benzyl)-propionamide], the IC50 was found to be 7.8 nM.

Consider `COCCc1ccc(Cl)c(CN(C(=O)[C@@H](CN)Cc2ccc(OCCOc3c(Cl)cc(C)cc3Cl)nc2)C2CC2)c1` [Example 18, (R)-2-Aminomethyl-N-[2-chloro-5-(2-methoxy-ethyl)-benzyl]-N-cyclopropyl-3-{6-[2-(2,6-dichloro-4-methyl-phenoxy)-ethoxy]-pyridin-3-yl}-propionamide], for which the concentration for half-maximal inhibition (IC50) is 0.2 nM.

`COCCc1ccc(Cl)c(CN(C(=O)[C@@H](CN)Cc2ccc(N3CC[C@@H](Oc4c(Cl)cc(C)cc4Cl)C3)nc2)C2CC2)c1` [Example 20, (R)-2-Aminomethyl-N-[2-chloro-5-(2-methoxy-ethyl)-benzyl]-N-cyclopropyl-3-{6-[(R)-3-(2,6-dichloro-4-methyl-phenoxy)-pyrrolidin-1-yl]-pyridin-3-yl}-propionamide]: the IC50 was 0.5 nM.

On to `COCCc1ccc(Cl)c(CN(C(=O)[C@@H](CN)Cc2ccc(N3CC[C@H](Oc4c(Cl)cc(C)cc4Cl)C3)nc2)C2CC2)c1` [Example 22, (R)-2-Aminomethyl-N-[2-chloro-5-(2-methoxy-ethyl)-benzyl]-N-cyclopropyl-3-{6-[(S)-3-(2,6-dichloro-4-methyl-phenoxy)-pyrrolidin-1-yl]-pyridin-3-yl}-propionamide], for which the concentration for half-maximal inhibition (IC50) was 0.3 nM.

With “Mixture of (R)-2-aminomethyl-3-{2-[(R)-3-(3-chloro-2,6-difluoro-phenoxy)-pyrrolidin-1-yl]-thiazol-5-yl}-N-cyclopropyl-N-(2,3-dichloro-benzyl)-propionamide and (S)-2-aminomethyl-3-{2-[(R)-3-(3-chloro-2,6-difluoro-phenoxy)-pyrrolidin-1-yl]-thiazol-5-yl}-N-cyclopropyl-N-(2,3-dichloro-benzyl)-propionamide [Example 14]”, the concentration for half-maximal inhibition (IC50) was found to be 45 nM.

Consider “Mixture of (R)-2-aminomethyl-N-cyclopropyl-N-(2,3-dichloro-benzyl)-3-{2-[(R)-3-(2,6-dichloro-3,4-dimethyl-phenoxy)-pyrrolidin-1-yl]-thiazol-5-yl}-propionamide and (S)-2-aminomethyl-N-cyclopropyl-N-(2,3-dichloro-benzyl)-3-{2-[(R)-3-(2,6-dichloro-3,4-dimethyl-phenoxy)-pyrrolidin-1-yl]-thiazol-5-yl}-propionamide [Example 11]”, for which the IC50 was 17 nM.
